Data reported in paper PMC11173485, “Connecting GSK-3β Inhibitory Activity with IKK-β or ROCK-1 Inhibition to Target Tau Aggregation and Neuroinflammation in Alzheimer’s Disease—Discovery, In Vitro and In Cellulo Activity of Thiazole-Based Inhibitors” (Molecules, 2024).
Values after ≈ are worked out from the molar mass of the structure shown.

What was measured:
[1] = test system: okadaic acid treated HT-22 cells; assay: Okadaic-acid-induced tau hyperphosphorylation cell model, cell viability; assay type: cell-based, mouse; conditions: okadaic acid 400 nM; for cell viability after okadaic acid (in words): 3 h, viability after 24 h; for activity in okadaic-acid-induced hyperphosphorylation assay (in words): 10, 1, and 0.1 µM
Protocol: We evaluated the neuroprotective properties of the selected compounds in an okadaic-acid-induced tau hyperphosphorylation cell model. Okadaic acid, acting as a phosphatase inhibitor, induces hyperphosphorylation and accumulation of neurofilaments in the cells, thereby mirroring the hyperphosphorylated, tau-induced neurodegeneration observed in AD brain [55, 56]. […] Compounds 50 and 58 were not active.
HT-22 cells were seeded into 96-well plates at a density of 2 × 10^4 cells per well. Okadaic acid (Merck) was added at a concentration of 400 nM and incubated for 3 h. After this time, 10, 1, and 0.1 µM of tested compounds were added and incubated in the aseptic conditions (37 °C, 5% CO2). Cell viability was determined using Presto Blue assay after 24 h. All data were normalized to the percentage survival of vehicle control. Data are represented as mean SD versus vehicle control.
(§1) Figure 4 (A) Results of the okadaic-acid-induced hyperphosphorylation assay. The HT-22 cells were pretreated for 3 h with okadaic acid (400 nM), and the tested compounds, at the increasing non-cytotoxic concentrations, were determined using a viability assay (or with the vehicle, 10 µM DMSO in the control sample). Cell viability was measured using the PrestoBlue^TM cell viability reagent. (B–D) Results of anti-inflammatory assays in LPS-treated (100 ng/mL) BV-2 cell line. The final compounds and references were tested at increasing non-cytotoxic concentrations and with DMSO as a control sample. NO release was measured using a fluorometric assay with 2,3-diaminonaphthalene (DAN). The IL-6 and TNF-α levels were measured using an LANCE Ultra TR-FRET Detection Kit (Perkin Elmer). Statistical analysis was performed using GraphPad Prism 9.0.0. All values are expressed as mean with SD. Differences among groups were evaluated using one-way ANOVA followed by post hoc analysis (Dunnett’s multiple comparison tests) and were considered statistically significant if p < 0.05 (* p < 0.05, ** p < 0.01, and **** p < 0.0001).

[2] = test system: NO release, LPS-treated BV-2 cells; assay: NO release in LPS-treated BV-2 cells (DAN fluorometric assay); assay type: cell-based, mouse; conditions: LPS 100 ng/mL, 18 h
Text: (§2) Lipopolysaccharide (LPS) is a potent pro-inflammatory stimulus triggering the extensive production of inflammatory mediators, including cytokines and chemokines. Consequently, it finds widespread application in inducing in vitro and in vivo models of sepsis and inflammation, including neuroinflammation. In this study, we employed LPS in the BV-2 cell line and assessed the impact of the selected compounds on the levels of NO, IL-6, and TNF-α production (Figure 4B–D). […] Moreover, all compounds surpassed the reference compound in these assays.
(§3) The cells were pretreated with tested compounds for 1 h. After this time, lipopolysaccharide (100 ng/mL) was added and the resulting mixture was incubated for 18 h. Next, the culture supernatant was acquired to measure the levels of nitric oxide (NO), IL-6, and TNF-α, according to the following procedures.
The NO level in the culture supernatants was measured using 2,3-diaminonaphthalene (DAN) reagent, according to the method of Nussler et al.. After 15 min of incubation at room temperature, the fluorescence intensity (EX 360; EM 440 nm) was measured using a microplate reader POLARstar Omega, (BMG Labtech). The values of nitric oxide were calculated as a percentage of control (maximal response of LPS).
as §1

[3] = test system: IL-6 level, LPS-treated BV-2 cells; assay: IL-6 level in LPS-treated BV-2 cells (LANCE Ultra TR-FRET); assay type: cell-based, mouse; conditions: LPS 100 ng/mL, 18 h
Text: as §2, §3
IL-6 and TNF-α levels in the culture supernatants were measured using the LANCE Ultra TR-FRET Detection Kit (Perkin Elmer, Waltham, MA, USA), according to the manufacturer’s protocol. Each cytokine detection was performed separately in a 384-well plate, following the kit instructions. Samples were added at 15 μL/well to a 384-well plate and then premixed antibody solution was added at 5 μL/well. After 1 h of incubation of IL-6 and 3 h of incubation of TNF-α in the dark at 22 °C, the plates were read using an EnVision plate reader (Perkin Elmer) with the excitation wavelength at 320 nm, the donor emission were read at 615 nm, and the acceptor emission were read at 660 nm. The values of IL-6 and TNF-α levels were calculated as a percentage of control (maximal response of LPS).
as §1

[4] = Metabolic stability in mouse liver microsomes; assay type: in vitro ADME; conditions: % compound remaining after 15 min with mouse liver microsomes, NADPH
Protocol: Metabolic stability was assessed using pooled microsomes from the liver of male mice (CD-1) from Sigma-Aldrich (St. Louis, MO, USA). Incubations were carried out in 96-well plates. Potassium phosphate buffer (100 mM, pH 7.4, + 2 mM MgCl2) containing murine liver microsomes (0.5 mg protein/mL) was pre-incubated with test compounds or positive control (1 µM, 0.2% DMSO) at 37 °C for 15 min (N = 2). Reactions were initiated by adding NADPH (1 mM). The reactions were also incubated without NADPH to exclude non-NADPH metabolism. The reactions were terminated after 15 min via the addition of an acetonitrile quenching solution containing an internal standard (labetalol, 0.5 mM). The plates were centrifuged at 4000 rpm for 30 min at 4 °C, and an aliquot of supernatant was diluted with water before analysis via UPLC-MS/MS. The UPLC-MS/MS system consisted of a Waters Acquity Premier (Waters Corporation, Milford, MA, USA) coupled with a Waters Xevo TQ-S Cronos mass spectrometer (electrospray ionization mode ESI). […] Chromatograms were recorded using a Waters eλ PDA detector. Spectra were analyzed in the 200–700 nm range with 1.2 nm resolution and a sampling rate of 20 points/s. […]

[5] = Chemical stability assay in phosphate buffer pH 7.4; assay type: physicochemical; conditions: phosphate buffer pH 7.4, 37 °C, 120 min
Protocol: Before conducting the metabolic stability studies, we assessed the chemical stability of 62 and II in phosphate buffer at pH 7.4.
Quantitative HPLC analyses were acquired using Waters Alliance e2695 separations module (Waters, Milford, CT, USA), containing 2998 photodiode array (PDA), a detector (Waters, Milford, CT, USA), and a SpeedROD RP-18e 50–4.6 mm column (Merck, KGaA, Darmstadt, Germany). The temperature of the column was preserved at 30 °C. The experiment was conducted under the following conditions: a flow rate of 5 mL/min, eluent A (water/0.1% HCOOH), eluent B (MeCN/0.1% HCOOH), and a gradient starting from 0% of B to 100% of B for 3 min. Each sample was injected at a volume of 10 μL in triplicate, and the spectra were analyzed at the maximum wavelength. Potassium phosphate buffer (100 mM, pH 7.4, + 2 mM MgCl2) was incubated with the test compounds (1 µM, 0.2% DMSO) at 37 °C for 120 min (N = 2).

[6] = Thermodynamic solubility assay in DPBS; assay type: physicochemical; conditions: for solubility at 24 h: Dulbecco's phosphate-buffered saline (DPBS), 20 °C, aqueous buffer, thermodynamic from solid, thermodynamic, 24 h shaking at room temperature, read-out: Solubility (µg/mL) ± SD
Protocol: To address potential challenges related to poorly soluble compounds, such as variable and limited intestinal absorption, we conducted thermodynamic solubility studies.
Quantitative HPLC analyses were performed similarly to the chemical stability studies. A standard solution of the tested compound was prepared in methanol at a concentration of 2 mg/mL. The standard solution was diluted with methanol to obtain five solutions with different concentrations ranging from 0.06 to 0.1 mg/mL or 0.035 to 0.05 mg/mL (for II), and they were quantified via HPLC. The calibration curve was plotted using AUC against the concentration (mg/mL). Next, 2 mg of the tested compound was dissolved in 1 mL of Dulbecco’s phosphate-buffered saline (DPBS), and the mixture was constantly agitated at 20 °C for 24 h in a thermoshaker. After that time, the mixture was filtered through a cellulose acetate syringe filter (pore size 0.22 μm) and the solution was analyzed via HPLC. The solubility of the tested compounds was calculated using the calibration curves (mg/mL).

For `NC(=O)Nc1cc(-c2ccnc(NC(=O)C3CC3)c2)sc1C(N)=O` [Compound 49, 5-(2-(Cyclopropanecarboxamido)pyridin-4-yl)-3-ureidothiophene-2-carboxamide], the “cell viability after okadaic acid (in words)” value (“cell viability” for short) ([1]; 1 µM compound) was “increased cell viability”, the “cell viability” value ([1]; 10 µM compound) was “increased cell viability” and the “NO level (in words)” value ([2]; 10 µM) was “significantly decreased”. For the same compound, the “IL-6 level (in words)” value ([3]; 1 µM) was “reduced IL-6 levels” and the “IL-6 level (in words)” value ([3]; 10 µM) was “significantly decreased”.

For `NC(=O)Nc1cc(-c2ccnc(NC(=O)C3CCC3)c2)sc1C(N)=O` [Compound 50, 5-(2-(Cyclobutanecarboxamido)pyridin-4-yl)-3-ureidothiophene-2-carboxamide], the “activity in okadaic-acid-induced hyperphosphorylation assay (in words)” value [1] was “not active”, the “NO level (in words)” value ([2]; 1 µM) was “reduced NO levels” and the “NO level (in words)” value ([2]; 10 µM) was “significantly decreased”. The “IL-6 level (in words)” value ([3]; 10 µM) was “significantly decreased”.

With `NC(=O)Nc1cc(-c2cccc(NC(=O)C3CC3)c2)sc1C(N)=O` [Compound 58, 5-(3-(Cyclopropanecarboxamido)phenyl)-3-ureidothiophene-2-carboxamide] the “activity in okadaic-acid-induced hyperphosphorylation assay (in words)” value [1] was “not active”.

For `O=C1NC2(CCOC2)Nc2cc(-c3ccnc(NC(=O)C4CC4)c3)sc21` (stereo not drawn) [Compound 62, N-(4-(4′-Oxo-3′,4,4′,5-tetrahydro-1′H,2H-spiro[furan-3,2′-thieno [3,2-d]pyrimidin]-6′-yl)pyridin-2-yl)cyclopropanecarboxamide], the “MLM Stability (%) ± SD” value [4] was 100 ± 1%, the “cell viability” value ([1]; 10 µM compound) was “increased cell viability” and the “NO level (in words)” value ([2]; 1 µM) was “reduced NO levels”. The “NO level (in words)” value ([2]; 10 µM) was “significantly decreased”, the “IL-6 level (in words)” value ([3]; 10 µM) was “significantly decreased” and the “chemical stability, % compound remaining relative to 0 min” value [5] was 100%. The “increase in solubility compared to reference compound II” value [6] was “sixfold” and the solubility at 24 h [6] was 31 ± 1 µg/mL (≈ 83.7 µM).

In the case of `COc1nc(-c2ccnc(NC(=O)C3CC3)c2)sc1C(N)=O` [II, reference compound], the “MLM Stability (%) ± SD” value [4] is reported as 100 ± 0%, the “chemical stability, % compound remaining relative to 0 min” value [5] is reported as 100% and the solubility at 24 h [6] is reported as 5 ± 1 µg/mL (≈ 15.7 µM).
